Measured values: patent US9266864B2, “VEGFR3 inhibitors” (CANCER THERAPEUTICS CRC PTY LIMITED, priority 2012, dated 2016)

Molecular target: T1, P397Y-FAK (Homo sapiens, UniProt Q05397)
T1 construct: endogenous in cells; host or cells: MDA-231-LNA
Assay: P397Y-FAK Inhibition MSD Platform Cellular Biomarker Assay
Format: cell-based
Conditions: MDA-231-LNA cells; concentration not given
Procedure: 96-well plates (cat#MA6000, Meso Scale Discovery) are coated with 30 μL/well of mouse monoclonal FAK antibody [63D5] (cat#ab72140, Abcam) pre-diluted in PBS to a concentration of 1 mg/mL. The plates are sealed with adhesive film and incubated for 16 hours at 4° C. The antibody is then flicked out of the plates and 150 μL of 3% [w/v] Blocker A (cat#R93AA-1, Meso Scale Discovery) is added. The plates are resealed with adhesive film and incubated at room temperature on a shaker set at medium speed for 2 hours. The plates are then washed three times with a solution containing 50 mM Tris-HCl pH 7.5, 0.15 M NaCl and 0.02% Tween-20, before cell lysate addition described below.
Cells are split 1:2 into T150 cell culture flasks 2 days prior to compound treatment. On the day prior to compound treatment, 200 μL media containing 20,000 cells is seeded into all wells of white, clear-bottom, TC treated, μclear, 96-well microtitre plates (cat#655098, Greiner Bio-One), and the plates are incubated at 37° C. and 5% CO2 for 36 hours. 1 μL/well of compound is then added from dilution series prepared in DMSO. […] 150 μL/well of Read Buffer T+Surfactant (cat#R92TC-1, Meso Scale Discovery) is then added, and pFAK-397 levels quantified using a Meso Scale Discovery SECTOR Imager 6000 instrument. […]

T1 sequence (Q05397 2-1052 limits assumed, stated change not applied): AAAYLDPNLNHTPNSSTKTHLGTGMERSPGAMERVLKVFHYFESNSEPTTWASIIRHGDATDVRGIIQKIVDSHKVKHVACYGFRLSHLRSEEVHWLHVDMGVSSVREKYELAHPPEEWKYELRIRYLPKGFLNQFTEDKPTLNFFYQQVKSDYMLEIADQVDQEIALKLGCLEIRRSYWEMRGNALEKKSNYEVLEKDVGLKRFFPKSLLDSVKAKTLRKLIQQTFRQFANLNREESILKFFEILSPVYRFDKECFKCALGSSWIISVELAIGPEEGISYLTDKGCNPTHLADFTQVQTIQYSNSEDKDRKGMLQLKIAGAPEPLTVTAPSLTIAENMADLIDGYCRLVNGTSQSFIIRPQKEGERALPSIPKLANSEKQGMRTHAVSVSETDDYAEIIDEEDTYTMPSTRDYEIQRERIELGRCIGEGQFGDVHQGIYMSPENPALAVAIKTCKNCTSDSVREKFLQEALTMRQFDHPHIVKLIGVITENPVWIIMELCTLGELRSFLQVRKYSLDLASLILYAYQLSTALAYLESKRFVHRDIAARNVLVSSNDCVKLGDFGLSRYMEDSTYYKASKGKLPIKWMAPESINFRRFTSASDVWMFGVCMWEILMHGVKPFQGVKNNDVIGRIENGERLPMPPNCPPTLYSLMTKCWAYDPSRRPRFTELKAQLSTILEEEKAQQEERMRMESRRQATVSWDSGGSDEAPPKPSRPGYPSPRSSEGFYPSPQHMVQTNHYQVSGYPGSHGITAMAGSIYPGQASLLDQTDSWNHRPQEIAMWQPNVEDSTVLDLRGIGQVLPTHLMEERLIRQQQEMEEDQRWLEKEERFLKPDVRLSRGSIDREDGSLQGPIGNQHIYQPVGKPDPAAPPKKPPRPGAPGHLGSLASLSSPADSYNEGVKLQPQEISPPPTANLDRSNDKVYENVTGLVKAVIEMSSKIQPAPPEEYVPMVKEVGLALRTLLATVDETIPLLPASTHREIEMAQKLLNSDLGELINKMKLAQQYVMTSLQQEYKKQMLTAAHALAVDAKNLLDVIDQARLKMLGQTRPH

P397Y-FAK inhibition (percent printed in the IC50 column): <50%
Structure (SMILES): NC(=O)Cc1ccccc1CCc1nc(Nc2ccc(C3CNC3)cc2)ncc1C(F)(F)F [Compound 20, 2-(2-(2-(2-((4-(azetidin-3-yl)phenyl)amino)-5-(trifluoromethyl)pyrimidin-4-yl)ethyl)phenyl)acetamide]
